Measurements: patent US20080293727A1, “Novel sulfonamide inhibitors of aspartyl protease” (priority 1992, published 2008)

Target: HIV-1 protease (Human immunodeficiency virus type 1 group M subtype B, UniProt P04585)
Assay: Inhibition constants against HIV-1 protease (method of Pennington et al.)
Format: biochemical
Conditions: HIV-1 protease; read-out: Ki value
Excerpt: We measured the inhibition constants of the compounds listed in Table VII against HIV-1 protease using the above-cited method of Pennington et al.

Row | SMILES | Ki [nM]
1 | O=C(N[C@@H](Cc1ccccc1)[C@H](O)CN(CC1CCCC1)S(=O)(=O)c1ccc2c(c1)CCO2)O[C@H]1CCOC1 [Compound 180] | < 0.1
2 | COC(=O)N[C@@H](Cc1ccccc1)[C@H](O)CN(CC(C)C)S(=O)(=O)c1ccc(F)cc1 [Compound 104] | 5.5
3 | CC(C)(C)OC(=O)N[C@@H](Cc1ccccc1)[C@H](O)CN(CC1CC1)S(=O)(=O)c1ccc(F)cc1 [Compound 74] | 11
4 | O=C(N[C@@H](Cc1ccccc1)[C@H](O)CN(CC1CCCC1)S(=O)(=O)c1ccc(F)cc1)OCc1cccnc1 [Compound 111] | 0.3
5 | CC(=O)Nc1ccc(S(=O)(=O)N(C)C[C@@H](O)[C@H](Cc2ccccc2)NC(=O)OC(C)(C)C)cc1 [Compound 128] | > 5000
6 | O=C(NC(Cc1ccccc1)C(O)CN(CC1CCCO1)S(=O)(=O)c1ccc(F)cc1)OC1CCOC1 (stereo not drawn) [Compound 132] | 6
7 | C=CCOC(=O)N[C@@H](Cc1ccccc1)[C@H](O)CN(CC(C)C)S(=O)(=O)c1ccc(F)cc1 [Compound 122] | 1.2
8 | COc1ccc(S(=O)(=O)N(CC2CCCC2)C[C@@H](O)[C@H](CC2CCCCC2)NC(=O)O[C@H]2CCOC2)cc1 [Compound 195, N-((2 syn,3S)-4-Cyclohexyl-2-hydroxy-3-((S)-tetrahydrofuran-3-yloxycarbonylamino)-butyl)-N-cyclopentylmethyl-4-methoxy-benzenesulfonamide] | 0.2
9 | O=C(N[C@@H](Cc1ccccc1)[C@H](O)CN(Cc1ccco1)S(=O)(=O)c1ccc(F)cc1)O[C@H]1CCOC1 [Compound 136] | 18
10 | CC(C)CN(C[C@@H](O)[C@H](Cc1ccccc1)NC(=O)[C@H](CC(N)=O)NC(=O)c1ccc2ccccc2n1)S(=O)(=O)N(C)C [Compound 21, N-1-((1S-2 syn)-1-Benzyl-2-hydroxy-3-(1-isobutyl-3,3-dimethylsulfonylurea)-propyl)-2-((quinoline-2-carbonyl)-amino)-succinamide] | 0.7
11 | C=C(C)COC(=O)N[C@@H](Cc1ccccc1)[C@H](O)CN(CC(C)C)S(=O)(=O)c1ccc(Cl)c(Cl)c1 [Compound 106] | 1.4
12 | CC(=O)Nc1cc(S(=O)(=O)N(CC(C)C)C[C@@H](O)[C@H](Cc2ccccc2)NC(=O)[C@H](CC(N)=O)NC(=O)c2ccc3ccccc3n2)ccc1F [Compound 16, (S)-N-1-(3-((3-Acetylamino-4-fluoro-benzenesulfonyl)-isobutyl-amino)-(1S,2 syn)-1-benzyl-2-hydroxy-propyl)-2-((quinoline-2-carbonyl)-amino)-succinamide] | < 0.1
13 | CC(C)CN(C[C@@H](O)[C@H](Cc1ccccc1)NC(=O)O[C@H]1CCOC1)S(=O)(=O)N1CCOCC1 [Compound 161] | 20
14 | CC(=O)Nc1ccc(S(=O)(=O)N(CC(C)C)C[C@@H](O)[C@H](Cc2ccccc2)NC(=O)O[C@@H]2CCOC2)cc1 [Compound 94, N-(4-(((syn)-2-Hydroxy-(S)-4-phenyl-3-((tetrahydro-furan-(R)-3-yl)-oxycarbonylamino)-butyl)-isobutyl-sulfamoyl)-phenyl)-acetamide] | 1.7
15 | CC(=O)Nc1ccc(S(=O)(=O)N(CC(C)C)C[C@@H](O)[C@H](Cc2ccccc2)NC(=O)OCCc2ccccc2)cc1 [Compound 164] | 130
16 | C=C(C)COC(=O)N[C@@H](Cc1ccccc1)[C@H](O)CN(CC(C)C)S(=O)(=O)c1ccc(F)cc1 [Compound 107] | 1.4
17 | CC(C)CN(C[C@@H](O)[C@H](Cc1ccccc1)NC(=O)O[C@@H](C)c1ccccc1)S(=O)(=O)c1cccc2nonc12 [Compound 56] | 60
18 | CC(C)CN(C[C@@H](O)[C@H](Cc1ccccc1)NC(=O)O[C@H]1CCOC1)S(=O)(=O)c1ccoc1 [Compound 113] | 3
19 | CC(C)CN(C[C@@H](O)[C@H](Cc1ccccc1)NC(=O)O[C@H](C)c1ccccc1)S(=O)(=O)c1cccc2nonc12 [Compound 59] | 206
20 | CC(C)CN(C[C@@H](O)[C@H](Cc1ccccc1)NC(=O)O[C@H]1CCOC1)S(=O)(=O)c1cc(Cl)c(Cl)s1 [Compound 95] | 1.3
21 | CC(=O)Nc1ccc(S(=O)(=O)N(CC(C)C)C[C@@H](O)[C@H](Cc2ccccc2)NC(=O)OC(C)(C)C)cc1 [Compound 39] | 17
22 | CN(C[C@@H](O)[C@H](Cc1ccccc1)NC(=O)OC(C)(C)C)S(=O)(=O)c1ccc(Cl)c(Cl)c1 [Compound 126] | 310
23 | COc1ccc(S(=O)(=O)N(CC(C)C)C[C@@H](O)[C@H](Cc2ccccc2)NC(=O)O[C@H]2CCOC2)cc1OC [Compound 123] | 10
24 | CC(=O)Nc1cc(S(=O)(=O)N(CC(C)C)C[C@@H](O)[C@H](Cc2ccccc2)NC(=O)OC(C)(C)C)ccc1F [Compound 54] | 22

Row | SMILES | Ki [nM]
25 | Cc1noc(C)c1S(=O)(=O)N(Cc1ccccc1)C[C@@H](O)[C@H](Cc1ccccc1)NC(=O)[C@H](CC(N)=O)NC(=O)c1ccc2ccccc2n1 [Compound 3] | 32
26 | CCOC(=O)N[C@@H](Cc1ccccc1)[C@H](O)CN(CC(C)C)S(=O)(=O)c1ccc(NC(C)=O)cc1 [Compound 120] | 11
27 | CC(C)CN(C[C@@H](O)[C@H](Cc1ccccc1)NC(=O)OCc1ccccc1)S(=O)(=O)c1ccc2nonc2c1 [Compound 65] | 0.7
28 | CC(=O)Nc1ccc(S(=O)(=O)N(CC(C)C)C[C@@H](O)[C@H](Cc2ccccc2)NC(=O)[C@H](CC(N)=O)NC(=O)c2ccc3ccccc3n2)cc1 [Compound 17, (S)-N-1-(1-(S)-Benzyl-3-((4-acetylamino-benzenesulfonyl)-isobutyl-amino)-2-(syn)-hydroxy-propyl)-2-((quinoline-2-carbonyl)-amino)-succinamide] | < 0.1
29 | CC(=O)Nc1ccc(S(=O)(=O)N(CC(C)C)C[C@@H](O)[C@H](Cc2ccccc2)NC(=O)[C@H](CC(N)=O)NC(=O)c2ccc3ccccc3n2)cc1F [Compound 15, (S)-N-1-(3-((4-Acetylamino-3-fluoro-benzenesulfonyl)-isobutyl-amino)-(1S,2 syn)-1-benzyl-2-hydroxy-propyl)-2-((quinoline-2-carbonyl)-amino)-succinamide] | < 0.1
30 | CC(=O)Nc1ccc(S(=O)(=O)N(CC(C)C)C[C@@H](O)[C@H](Cc2ccccc2)NC(=O)[C@@H](NC(=O)OCc2ccccn2)C(C)C)cc1 [Compound 22] | 1
31 | Cc1nc(C)c(S(=O)(=O)N(CC(C)C)C[C@@H](O)[C@H](Cc2ccccc2)NC(=O)OC(C)(C)C)s1 [Compound 46] | 154
32 | CC(C)CN(C[C@@H](O)[C@H](Cc1ccccc1)NC(=O)O[C@H]1CCOC1)S(=O)(=O)c1ccc(Cl)cc1 [Compound 99, 4-Chloro-N-((2 syn,3S)-2-hydroxy-4-phenyl-3-((S)-tetrahydrofuran-3-yloxycarbonylamino)-butyl)-isobutyl-benzenesulfonamide] | 0.24
33 | COc1ccc(S(=O)(=O)N(CC(C)C)C[C@@H](O)[C@H](Cc2ccccc2)NC(=O)OCc2ccncc2)cc1 [Compound 163, N-((2 syn,3S)-2-Hydroxy-4-phenyl-3-(pyridin-4-yl-methoxycarbonylamino)-butyl)-N-isobutyl-4-methoxy-benzenesulfonamide] | 0.5
34 | CN(C)S(=O)(=O)N(Cc1ccccc1)C[C@@H](O)[C@H](Cc1ccccc1)NC(=O)[C@H](CC(N)=O)NC(=O)c1ccc2ccccc2n1 [Compound 11] | 34
35 | CC(=O)Nc1cc(S(=O)(=O)N[C@@H](Cc2ccccc2)[C@H](O)CN(CC(C)C)S(=O)(=O)c2ccc(F)c(NC(C)=O)c2)ccc1F [Compound 70] | 25
36 | CC(C)CN(C[C@@H](O)[C@H](Cc1ccccc1)NC(=O)[C@H](CC(N)=O)NC(=O)c1ccc2ccccc2n1)S(=O)(=O)c1cc(S(=O)(=O)c2ccccc2)cs1 [Compound 13, (S)-N-1-(3-((4-Benzenesulfonyl-thiophene-2-sulfonyl)-isobutyl-amino)-(1S,2 syn)-1-benzyl-2-hydroxy-propyl)-2-((quinoline-2-carbonyl)-amino)-succinamide] | 0.2
37 | CC(=O)Nc1ccc(S(=O)(=O)N(CC(C)C)C[C@@H](O)[C@H](Cc2ccccc2)NC(=O)OCc2cccnc2)cc1 [Compound 44, N-(4-(((2 syn,3S)-2-Hydroxy-4-phenyl-3-(pyridin-3-yl-methoxycarbonylamino)-butyl)-isobutyl-sulfamoyl)-phenyl)-acetamide] | 5
38 | C=C(COC)COC(=O)N[C@@H](Cc1ccccc1)[C@H](O)CN(CC1CCCC1)S(=O)(=O)c1ccc(OC)cc1 [Compound 162] | 0.5
39 | CC(C)CN(C[C@@H](O)[C@H](Cc1ccccc1)NC(=O)[C@@H](NC(=O)OCc1ccccn1)C(C)C)S(=O)(=O)N(C)C [Compound 24] | 32500
40 | CC(=O)Nc1ccc(S(=O)(=O)N(CC(C)C)C[C@@H](O)[C@H](Cc2ccccc2)NC(=O)C(=O)C(C)(C)C)cc1 [Compound 1001] | 220
41 | CN(C[C@@H](O)[C@H](Cc1ccccc1)NC(=O)OC(C)(C)C)S(=O)(=O)c1ccc(F)cc1 [Compound 127] | 650
42 | O=C(N[C@@H](Cc1ccccc1)[C@H](O)CN(CC1CCCC1)S(=O)(=O)c1ccc(Cl)cc1)O[C@H]1CCOC1 [Compound 116, 4-Chloro-N-cyclopentylmethyl-N-((2 syn,3S)-2-hydroxy-4-phenyl-3-((S)-tetrahydrofuran-3-yloxycarbonylamino)-butyl)-benzenesulfonamide] | < 0.1
43 | CC(=O)Nc1ccc(S(=O)(=O)N(CC(C)C)CC(O)C(Cc2ccccc2)NC(=O)C(CC(N)=O)NC(=O)c2ccc3ccccc3n2)cc1 (stereo not drawn) [Compound 193] | 400
44 | CC(=O)Nc1ccc(S(=O)(=O)N(CC(C)C)C[C@@H](O)[C@H](Cc2ccccc2)NC(=O)C(NC(N)=O)NC(N)=O)cc1 [Compound 67] | 7400
45 | C=C(C)CN(C[C@@H](O)[C@H](Cc1ccccc1)NC(=O)O[C@H]1CCOC1)S(=O)(=O)c1ccc(F)cc1 [Compound 135] | 2.7
46 | CC(C)CN(C[C@@H](O)[C@H](Cc1ccccc1)NC(=O)COc1ccccc1)S(=O)(=O)c1cccc2nonc12 [Compound 57] | 200
47 | CC(=O)Nc1ccc(S(=O)(=O)N(CC(C)C)C[C@@H](O)[C@H](Cc2ccccc2)NC(=O)NCc2ccccc2)cc1 [Compound 33] | 80
48 | CC(C)CN(C[C@@H](O)[C@H](Cc1ccccc1)NC(=O)O[C@H]1CCOC1)S(=O)(=O)c1cccc2nonc12 [Compound 60] | 4
